This experiment deals with calpain. In words: cell-based luminescent calpain activity assay.

Peptide text beside a SMILES is read from it. * marks the point of attachment. Cbz = O=C(OCc1ccccc1)*

The term EC50 denotes the concentration at which the effect is half-maximal. Lower therefore signals an effect from little substance. Take `CC(C)[C@H](NC(=O)OCc1ccccc1)C(=O)N[C@H](C=O)Cc1ccccc1` [MDL-28170] (Cbz-Val-Phe-aldehyde): the EC50 turned out to be 14 ± 1.4 µM.

(Values after PMC2754199 (Journal of biomolecular screening, 2008).)
